The results in this text go back to patent US20260347338A1, “PYRIMIDINE/PYRIDINE DERIVATIVES OR SALTS THEREOF AND PHARMACEUTICAL COMPOSITIONS COMPRISING THE SAME” (YUHAN CORPORATION, priority 2023, published 2026).

In the assay the target is T1, human recombinant HPK1 (Homo sapiens, UniProt Q92918).
T1 construct: purchased BPS Bioscience
In words: Inhibitory activity against human recombinant HPK1 (TR-FRET). Type of assay: biochemical. Conditions: ULight-p70S6K peptide, ATP at Km, room temperature, 1 hour, 0.32 to 1000 nM compound. Here is the method:
Test Example: Evaluation of Inhibitory Activity Against Human Recombinant HPK1
The inhibitory activity against human recombinant HPK1 was evaluated using the Time-Resolved Fluorescence Resonance Energy Transfer (TR-FRET) technology of Perkin-Elmer. The test compound was prepared as a 20 mM stock solution with dimethyl sulfoxide (DMSO), serially diluted in a buffer solution, and used at final compound concentrations of 0.32 to 1000 nM. The evaluation of inhibitory activity was carried out at room temperature, using recombinant human HPK1 (BPS Bioscience). Briefly, recombinant human HPK1, serially diluted each test compound, ULight-p70S6K peptide substrate (PerkinElmer), and ATP at each concentration (Km and final concentration) were added to a kinase buffer solution (50 mM HEPES pH 7.4, 10 mM MgCl2, 1 mM EGTA, 3 mM MnCl2, 2 mM DTT, and 0.01% Tween-20). The resulting mixture was added to each well of a 384-well plate (Optiplate™ 384, white, PerkinElmer). The enzyme reaction was carried out at room temperature for 1 hour. After the reaction was suspended by adding 4 μL of a stop solution (10 mM EDTA) thereto, the mixture was stirred for 1 minute and then a detection solution containing Europium-labeled anti-phosphopeptide antibody (final concentration: 2 nM, PerkinElmer) was added thereto. The signals of TR-FRET at excitation wavelength (320 nm) and emission wavelength (665 nm) were detected using a microplate reader (Envision Multilabel Reader, Perkin-Elmer). Inhibition by the test compound was measured as % inhibition in the signals, compared to the control group treated with DMSO only. The IC50 value of each compound was calculated using the GraphPad Prism program (GraphPad Software, Inc., San Diego, CA, USA). The IC50 values of test compounds for inhibitory activity against HPK1 were classified as follows: • A: IC50≤10 nM • B: 10 nM<IC50≤50 nM • C: 50 nM<IC50≤100 nM • D: IC50>100 nM

Structures can show the parent of a compound that is named as a salt.

T1 sequence (Q92918 whole entry): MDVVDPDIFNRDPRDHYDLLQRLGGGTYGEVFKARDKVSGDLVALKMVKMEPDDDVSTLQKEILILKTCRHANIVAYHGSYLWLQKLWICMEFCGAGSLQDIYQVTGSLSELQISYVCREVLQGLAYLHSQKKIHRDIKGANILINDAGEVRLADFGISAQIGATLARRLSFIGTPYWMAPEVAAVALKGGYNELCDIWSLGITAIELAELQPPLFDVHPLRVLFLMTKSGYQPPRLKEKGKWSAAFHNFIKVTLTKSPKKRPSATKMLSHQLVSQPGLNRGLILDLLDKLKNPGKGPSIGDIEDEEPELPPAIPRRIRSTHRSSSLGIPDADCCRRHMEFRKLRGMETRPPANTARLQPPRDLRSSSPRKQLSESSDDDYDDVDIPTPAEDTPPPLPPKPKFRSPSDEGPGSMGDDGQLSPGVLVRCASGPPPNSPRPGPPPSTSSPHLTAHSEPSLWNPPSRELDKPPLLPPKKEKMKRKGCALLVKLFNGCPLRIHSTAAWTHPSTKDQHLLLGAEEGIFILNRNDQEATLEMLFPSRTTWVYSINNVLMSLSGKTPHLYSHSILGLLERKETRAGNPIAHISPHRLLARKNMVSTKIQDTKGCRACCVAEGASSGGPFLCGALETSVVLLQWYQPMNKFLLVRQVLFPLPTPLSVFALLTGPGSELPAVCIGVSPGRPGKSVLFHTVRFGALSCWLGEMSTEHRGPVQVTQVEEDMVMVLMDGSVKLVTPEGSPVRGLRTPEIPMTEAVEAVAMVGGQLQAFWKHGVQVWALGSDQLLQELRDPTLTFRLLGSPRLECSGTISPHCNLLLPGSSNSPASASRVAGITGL

For the compound `COc1cccc(F)c1-c1nc(Nc2cc(N3CCC[C@H](O)C3)c(C#CC3CCOCC3)cn2)ccc1C(N)=O` [Example 140, 2-(2-fluoro-6-methoxyphenyl)-6-((4-((S)-3-hydroxypiperidin-1-yl)-5-((tetrahydro-2H-pyran-4-yl)ethynyl)pyridin-2-yl)amino)nicotinamide], the IC50 is no more than 10 nM.
For the compound `N[C@H]1CCCN(c2cc(Nc3ccnc(-c4cc5nccnc5cc4F)n3)ncc2-c2cnn(CC(F)(F)F)c2)C1` [Example 89, (S)-N-(4-(3-aminopiperidin-1-yl)-5-(1-(2,2,2-trifluoroethyl)-1H-pyrazol-4-yl)pyridin-2-yl)-2-(7-fluoroquinoxalin-6-yl)pyrimidin-4-amine hydrochloride], the IC50 is no more than 10 nM.
For `COc1cc(F)cc(F)c1-c1nc(Nc2cc(N3CCC[C@H](O)C3)c(-c3cnn(C4CCOCC4)c3)cn2)ccc1[N+](=O)[O-]` [Example 224, (3S)-1-(2-((6-(2,4-difluoro-6-methoxyphenyl)-5-nitropyridin-2-yl)amino)-5-(1-(tetrahydro-2H-pyran-4-yl)-1H-pyrazol-4-yl)pyridin-4-yl)piperidin-3-ol], the IC50 was no more than 10 nM.
For `COc1cccc(F)c1-c1nccc(Nc2cc(N3CCC[C@H](N)C3)c(-c3ccc(C(=O)N4CCNCC4)cc3)cn2)n1` [Example 265, (S)-(4-(4-(3-aminopiperidin-1-yl)-6-((2-(2-fluoro-6-methoxyphenyl)pyrimidin-4-yl)amino)pyridin-3-yl)phenyl)(piperazin-1-yl)methanone hydrochloride], the IC50 was no more than 10 nM.
As for `N[C@H]1CCCN(c2cc(Nc3cccc(N4CCOC4=O)n3)ncc2-c2cnn(C3CCOCC3)c2)C1` [Example 127, (S)-3-(6-((4-(3-aminopiperidin-1-yl)-5-(1-(tetrahydro-2H-pyran-4-yl)-1H-pyrazol-4-yl)pyridin-2-yl)amino)pyridin-2-yl)oxazolidin-2-one hydrochloride], the IC50 lay within 10 to 50 nM.
As to `COc1cccc(F)c1-c1nc(Nc2cc(N3CCC[C@H](O)C3)c(-c3cnn(CC(F)(F)F)c3)cn2)ccc1N` [Example 180, (3S)-1-(2-((5-amino-6-(2-fluoro-6-methoxyphenyl)pyridin-2-yl)amino)-5-(1-(2,2,2-trifluoroethyl)-1H-pyrazol-4-yl)pyridin-4-yl)piperidin-3-ol], the IC50 was no more than 10 nM.
As for `COc1cccc(F)c1-c1nccc(Nc2cc(N3CCC[C@H](N)C3)c(-c3cc(C)c(OC(C)C)c(C)c3)cn2)n1` [Example 284, (S)-N-(4-(3-aminopiperidin-1-yl)-5-(4-isopropoxy-3,5-dimethylphenyl)pyridin-2-yl)-2-(2-fluoro-6-methoxyphenyl)pyrimidin-4-amine hydrochloride], the IC50 is no more than 10 nM.
Take `COc1cccc(F)c1-c1nc(Nc2cc(N3CCC[C@H](N)C3)c(-c3cnn(C4CCOCC4)c3)cn2)ccc1C#N` [Example 300, 6-((4-((S)-3-aminopiperidin-1-yl)-5-(1-(tetrahydro-2H-pyran-4-yl)-1H-pyrazol-4-yl)pyridin-2-yl)amino)-2-(2-fluoro-6-methoxyphenyl)nicotinonitrile hydrochloride]: the IC50 was no more than 10 nM.
In the case of `COc1cccc(F)c1-c1nccc(Nc2cc(N3CC[C@H](CO)[C@@H](O)C3)c(-c3cnn(C4CCOCC4)c3)cn2)n1` [Example 95, (3R,4R)-1-(2-((2-(2-fluoro-6-methoxyphenyl)pyrimidin-4-yl)amino)-5-(1-(tetrahydro-2H-pyran-4-yl)-1H-pyrazol-4-yl)pyridin-4-yl)-4-(hydroxymethyl)piperidin-3-ol], the IC50 is no more than 10 nM.
Consider `COc1cccc(F)c1-c1nc(Nc2cc(N3CC[C@@H](N)[C@H](O)C3)c(-c3cnn(C(F)F)c3)cn2)ccc1C#N` [Example 326, 6-((4-((3R,4R)-4-amino-3-hydroxypiperidin-1-yl)-5-(1-(difluoromethyl)-1H-pyrazol-4-yl)pyridin-2-yl)amino)-2-(2-fluoro-6-methoxyphenyl)nicotinonitrile], for which the IC50 is no more than 10 nM.
For `COc1cccc(F)c1-c1nccc(Nc2cc(N3CCC(C(F)(F)F)CC3)c(-c3cnn(C4CCOCC4)c3)cn2)n1` [Example 87, 2-(2-fluoro-6-methoxyphenyl)-N-(5-(1-(tetrahydro-2H-pyran-4-yl)-1H-pyrazol-4-yl)-4-(4-(trifluoromethyl)piperidin-1-yl)pyridin-2-yl)pyrimidin-4-amine], the IC50 was no more than 10 nM.
Turning to `CN[C@@H]1CCCN(c2cc(Nc3ccnc(-c4c(F)cccc4OC)n3)ncc2-c2cnn(C(F)F)c2)C1` [Example 123, (R)-N-(5-(1-(difluoromethyl)-1H-pyrazol-4-yl)-4-(3-(methylamino)piperidin-1-yl)pyridin-2-yl)-2-(2-fluoro-6-methoxyphenyl)pyrimidin-4-amine hydrochloride], the IC50 lay within 10 to 50 nM.
In the case of `CCNC(=O)Nc1ccc(-c2cnc(Nc3ccnc(-c4c(F)cccc4OC)n3)cc2N2CCC[C@H](N)C2)cn1` [Example 250, (S)-1-(4′-(3-aminopiperidin-1-yl)-6′-((2-(2-fluoro-6-methoxyphenyl)pyrimidin-4-yl)amino)-[3,3′-bipyridin]-6-yl)-3-ethylurea hydrochloride], the IC50 was no more than 10 nM.
Under `COc1cccc(F)c1-c1nc(Nc2cc(N3CC[C@@H](F)[C@H](O)C3)c(-c3cnn(C(F)F)c3)cn2)ccc1C#N` [Example 331, 6-((5-(1-(difluoromethyl)-1H-pyrazol-4-yl)-4-((3R,4R)-4-fluoro-3-hydroxypiperidin-1-yl)pyridin-2-yl)amino)-2-(2-fluoro-6-methoxyphenyl)nicotinonitrile] stands no more than 10 nM; under `COc1cccc(F)c1-c1nccc(Nc2cc(N3CC[C@@H](O)[C@H](N)C3)c(-c3cnn(C(F)F)c3)cn2)n1` [Example 209, (3R,4R)-3-amino-1-(5-(1-(difluoromethyl)-1H-pyrazol-4-yl)-2-((2-(2-fluoro-6-methoxyphenyl)pyrimidin-4-yl)amino)pyridin-4-yl)piperidin-4-ol hydrochloride], no more than 10 nM; under “2-(2-fluoro-6-methoxyphenyl)-6-((4-((S)-3-hydroxypiperidin-1-yl)-5-(1-(1-methylpiperidin-4-yl)-1H-pyrazol-4-yl)pyrimidin-2-yl)amino)nicotinonitrile [Example 63]”, 50 to 100 nM.
As to `COc1cccc(F)c1-c1nccc(Nc2cc(N3CCC[C@H](O)C3)c(-c3ccc(OC4CCN(C)CC4)cn3)cn2)n1` [Example 81, (S)-1-(6′-((2-(2-fluoro-6-methoxyphenyl)pyrimidin-4-yl)amino)-5-((1-methylpiperidin-4-yl)oxy)-[2,3′-bipyridin]-4′-yl)piperidin-3-ol], the IC50 was greater than 100 nM.
Under `COc1cccc(F)c1-c1nc(Nc2cc(N3CCC[C@H](O)C3)c(C(=O)NC3CC(O)C3)cn2)ccc1[N+](=O)[O-]` (stereo partly drawn) [Example 196, 6-((6-(2-fluoro-6-methoxyphenyl)-5-nitropyridin-2-yl)amino)-N-(3-hydroxycyclobutyl)-4-((S)-3-hydroxypiperidin-1-yl)nicotinamide] stands no more than 10 nM; under `COc1cccc(F)c1-c1nc(Nc2cc(N3CC[C@@H](F)[C@H](N)C3)c(-c3cnn(C(F)F)c3)cn2)ccc1C#N` [Example 321, 6-((4-((3R,4R)-3-amino-4-fluoropiperidin-1-yl)-5-(1-(difluoromethyl)-1H-pyrazol-4-yl)pyridin-2-yl)amino)-2-(2-fluoro-6-methoxyphenyl)nicotinonitrile hydrochloride], no more than 10 nM; under “6-((6-(2-fluoro-6-methoxyphenyl)-5-nitropyridin-2-yl)amino)-N-((1R,3S)-3-hydroxycyclopentyl)-4-((S)-3-hydroxypiperidin-1-yl)nicotinamide [Example 195]”, no more than 10 nM.
With `COc1cccc(F)c1-c1nccc(Nc2cc(N3CCC[C@H](O)C3)c(-c3cnn(C4CCOC4)c3)cn2)n1` (stereo partly drawn) [Example 14, (3S)-1-(2-((2-(2-fluoro-6-methoxyphenyl)pyrimidin-4-yl)amino)-5-(1-(tetrahydrofuran-3-yl)-1H-pyrazol-4-yl)pyridin-4-yl)piperidin-3-ol], the IC50 is no more than 10 nM.
In the case of `COc1cccc(F)c1-c1nccc(Nc2cc(N3CCC4(CCN(C)C4)CC3)c(-c3cnn(C4CCOCC4)c3)cn2)n1` [Example 117, 2-(2-fluoro-6-methoxyphenyl)-N-(4-(2-methyl-2,8-diazaspiro[4.5]decan-8-yl)-5-(1-(tetrahydro-2H-pyran-4-yl)-1H-pyrazol-4-yl)pyridin-2-yl)pyrimidin-4-amine], the IC50 was no more than 10 nM.
Under `CCn1cc(-c2cnc(Nc3ccc(C#N)c(-c4c(F)cccc4OC)n3)cc2N2CCC[C@H](N)C2)cn1` [Example 327, 6-((4-((S)-3-aminopiperidin-1-yl)-5-(1-ethyl-1H-pyrazol-4-yl)pyridin-2-yl)amino)-2-(2-fluoro-6-methoxyphenyl)nicotinonitrile hydrochloride] stands no more than 10 nM.

A word on the IC50: it is the midpoint of a concentration-inhibition curve.
